In patent US7507707B2, “Methods of inducing ovulation using a non-polypeptide camp level modulator” (Laboratoires Serono SA, priority 2001, dated 2009):

Legend:
immature female rats [1] = test: In vivo ovulation model: FSH-pretreated immature rats, oocytes counted in oviduct after 18 hours; set-up: species or system rat
Source text: The role of FSH in any ovulation induction regimen is for promoting follicular development and maturation, not ovulation induction.
All injections were subcutaneous. Results are expressed as mean plus or minus standard deviations. […] The effects of Compound 1, a known PDE inhibitor are shown.
Data represent average number of oocytes in oviducts of all rats in each group and frequency of ovulating rats. […] Results are expressed as mean plus or minus standard deviations.
Data represent average number of oocytes in oviducts of all rats in each group and frequency of ovulating rats. Results are expressed as mean plus or minus standard deviations.
(§1) Following FSH induced follicular maturation (2.16 IU/rat/injection; bid×2 days) Compound 2 was either injected subcutaneously (subcutis) or administered by oral gavage. Ovulation was determined 18 hours after Compound 2 administration by counting oocytes in oviduct. Data represent average number of oocytes in oviducts of all rats in each group and frequency of ovulating rats. Results are expressed as mean plus or minus standard deviations.
as §1, with “days) […] was either” for “days) Compound 2 was either”

[2] = tested on: rat ovarian granulosa cells; test: Rat ovarian granulosa cell cAMP levels, alone or with gonadotropins in vitro (cAMP specific RIA); assay type: cell-based; conditions: 25 micromolar compound with subeffective (0.1 pM) gonadotropin, 48 hrs
Experimental: Ovaries were removed from immature 25 day old, hypophysectomized, diethylstilbesterol treated Sprague-Dawley rats. The ovaries were repeatedly punctured with 27 gauge needles to liberate granulosa cells from the follicles. Cells were washed and re-suspended in McCoys 5A media+0.1% BSA+2 μM androstenedione. Viable cells in number of 100,000 were loaded into 6-well tissue culture dishes in a 1.0 ml volume (with Compound 1 and Compound 2 at a concentration of 25 micromolar, either alone or in conjunction with a low, 0.1 pM dose of gonadotropin). Plates were incubated in a 37° C. incubator, 100% humidity, 5.0% CO2 for 48 hrs. Conditioned media were assayed in a cAMP specific RIA. Results are expressed as mean plus or minus standard deviations.

immature female rats [3] = test: Follicle maturation in vivo: sub-optimal FSH with co-administered PDE inhibitor, ovulatory hCG, oocytes counted in oviduct; set-up: species or system rat
Experimental: Mature ovarian follicles generated in immature female rats by treatment with a sub-optimal dose of FSH (1.08 IU/rat/injection; bid×3 days) with and without co-administration of Compound 1 (0.1, 1, 10, and 50 mg/kg/injection: bid×3 days). […] The PDE inhibitors were given in conjunction with sub-optimal doses of FSH. All injections were subcutaneously administered. […] Results are expressed as mean plus or minus standard deviations. […] As also noted in FIG. 3, a PDE inhibitor (Compound 1) inhibited (rather than stimulated) both ovulation administered at 50 mg/kg.

immature rats = test: Ovulation and fertility in FSH/PMSG pretreated immature rats; assay type: in vivo, rat; conditions: single subcutaneous injection
Experimental: Follicular maturation was induced in immature rats with FSH (4.33 IU/rat/injection; bid×2 days) and Pregnant Mare's Serum Gonadotropin (PMSG) (1.5 IU/rat/injection; bid×2 days). […] FSH and PMSG induced rats were then treated with either Compound 2 (12 rats) or vehicle (12 rats) by subcutaneous administration. In one cohort of rats (6 rats per treatment), ovulation was determined 18 hours after Compound 2 or vehicle administration by counting oocytes in oviduct. To assess fertility, another cohort of rats (6 rats per treatment) were individually placed overnight in a cage together with a single adult male rat of proven fertility. The next day, male rats were removed and the females were caged together by group until the day of parturition. The number of live full-term pups observed at the time of parturition was recorded. […] Results for both ovulation and live pups are expressed as mean plus or minus standard deviations.

[4] = single subcutaneous injection co-administered with sub-effective dose of hCG
[5] = subcutaneous injection alone, without hCG

Row | Structure (SMILES) | ovulation (oocytes in oviduct) (immature female rats [1]; [4]) | ovulation (oocytes in oviduct) (immature female rats [1]; [5]) | cAMP levels in conditioned media [2] | ovulation (oocytes in oviduct, frequency of ovulating rats) (immature female rats [3]; 50 mg/kg/injection bid x 3 days s.c. with sub-optimal FSH (1.08 IU), ovulatory hCG 20 IU) | ability of a sub-optimal dose of FSH to prepare follicles to ovulate (immature female rats [3]; increasing doses 0.1, 1, 10, 50 mg/kg/injection bid x 3 days s.c. with sub-optimal FSH) | ovulation (oocytes in oviduct) (immature female rats [1]; oral gavage, without hCG) | ovulation (oocytes in oviduct) (immature rats; 18 hours) | number of live full-term pups at the time of parturition (immature rats; mated overnight)
1 | COc1ccc([C@]2(C#N)CC[C@@H](C(=O)O)CC2)cc1OC1CCCC1 [Compound 1, Cis-4-cyano-4-(3-(cyclopentyloxy)-4-methoxyphenyl)cyclohexane-1-carboxylic acid] | induction of ovulation | induction of ovulation | significant increase | inhibited | failed to enhance | – | – | –
2 | Clc1nc2c(N3CCCC3)nc(N3CCNCC3)nc2nc1NCc1ccccc1 [Compound 4, 7-Benzylamino-6-chloro-2-piperazino-4-pyrrolidinopteridine] | induction of ovulation | little or no ovulation | – | – | – | – | – | –
3 | COc1ccc(C(=O)Nc2c(Cl)cncc2Cl)cc1OC1CCCC1 [Compound 2, 3-(Cyclopentyloxy)-N-(3,5-dichloropyridin-4-yl)-4-methoxybenzamide] | – | induction of ovulation | significant increase | – | – | induction of ovulation | induction of ovulation | increased number of live pups
4 | CCOc1cc2cc(CO)c(CO)c(-c3ccnc(-n4nc(-c5cccnc5)c5ccccc5c4=O)c3)c2cc1OCC.Cl [Compound 3, 2-(4-(6,7-Diethoxy-2,3-bis(hydroxymethyl)naphthalen-1-yl)pyridin-2-yl)-4-(3-pyridyl) pthalazin-1 (2H)-one hydrochloride] | – | induction of ovulation | – | – | – | induction of ovulation | – | –
